{
  "source": "patent US20220040180A1",
  "about": "“KITS AND METHODS FOR TREATING CANCERS” (Spectrum Pharmaceuticals, Inc., priority 2018, published 2022)",
  "type_in_all_cases": "physicochemical",
  "key": {"[1]": {"experiment": "Behaviour under long-term, accelerated and harsh storage conditions (moisture absorption, stability of form)"}, "[2]": {"experiment": "Dynamic vapor sorption (DVS) hygroscopicity", "procedure": "Dynamic Vapor Sorption (DVS) analysis was conducted on the DVS advantage (Surface measurement system, United Kingdom) analyzer at 25° C. and relative humidity of 0-90%.\n10 mg of sample was placed in the wire mesh steam sorption balance pan and attached to the DVS-advantage dynamic vapor adsorption balance by the Surface Measurement Systems. […] After the completion of the sorption cycle, the sample was dried using the same procedure, during which the relative humidity was returned to a relative humidity […] all the time. The change in weight during the sorption/desorption cycle (repetition of 3 times) was recorded to determine the hygroscopicity of the sample."}, "[3]": {"experiment": "Test Example 2: comparative storage stability of hydrochloride salt forms, purity by HPLC", "procedure": "High performance liquid chromatography (HPLC) was conducted on the Agilent 1100/1200 series HPLC Systems (Agilent, USA) analyzer for the purpose of purity and content analysis including stability test and the like. The analysis conditions of the HPLC are as follows.\nTo compare the stability of amorphous hydrochloride salt form and crystalline hydrochloride salt polymorphs, each of samples of the polymorphs and amorphous form of the hydrochloride salt of the compound of chemical formula (1) prepared in Examples 4 to 6 was left for 4 weeks under long term conditions (e.g., temperature of 25±2° C. and relative humidity of 60±5%) and accelerated conditions (e.g., temperature of 40° C. and relative humidity of 75%). Each sample was analyzed by high performance liquid chromatography (HPLC) according to the purity measurement conditions of the compound of chemical formula (1)."}, "[4]": {"experiment": "Test Example 1: comparative solubility of amorphous and crystalline hydrochloride salt forms (HPLC)", "settings": "25° C., loading of 1.0 mg/mL; for Solubility, Water: LOD 0.1 μg/mL", "procedure": "To compare the solubility of amorphous hydrochloride salt form and crystalline hydrochloride salt polymorphs, each of the polymorphs and amorphous form of the hydrochloride salt of the compound of chemical formula (1) prepared in Examples 4 to 6 was used to prepare samples under the following conditions according to non-ionized water and acidity (pH). Thereafter, each solution was analyzed by high performance liquid chromatography (HPLC) according to the measurement conditions of the content of the compound of chemical formula (1) to measure the dissolved amount (LOD: 0.1 μg/mL) based on the compound of chemical formula (1).\nSpecifically, 5 mg of each polymorph was added to 5 ml of water and mixed using a Voltamixer at 20-25° C. Thereafter, the filtrate obtained by filtrating using GH Polypro membrane Acrodisc, PALL (pore size 0.2 μm) was diluted with a dilution solvent for high performance liquid chromatography (HPLC) at a ratio of 1/100, to obtain the samples."}, "[5]": {"experiment": "Solubility in water of the compound of chemical formula (1)", "settings": "amorphous free base"}, "[6]": {"settings": "relative humidity range of 10-90%, 25° C."}, "[7]": {"settings": "25 ± 2° C., 60 ± 5% RH, listed as HCl cryst. hydrate"}, "[8]": {"settings": "40 ± 2° C., 75 ± 5% RH, listed as HCl cryst. hydrate"}, "[9]": {"settings": "25 ± 2° C., 60 ± 5% RH, listed as HCl cryst. anhydrate"}, "[10]": {"settings": "40 ± 2° C., 75 ± 5% RH, listed as HCl cryst. anhydrate"}},
  "data": [
    {"compound": "C=CC(=O)N1CCC(Oc2cc3c(Nc4ccc(Cl)c(Cl)c4F)ncnc3cc2OC)CC1", "note": "[Example 3, 1-(4-(4-(3,4-dichloro-2-fluorophenylamino)-7-methoxyquinazolin-6-yloxy)piperidin-1-yl)prop-2-en-1-one]", "values": [
      {"measurement": "stability of the crystalline form on storage", "setting": "[1]; long-term (25° C., 60% RH), accelerated (40° C., 75% RH) and harsh (60° C.) conditions", "result": "sufficiently stable"},
      {"measurement": "hygroscopic degree (DVS)", "setting": "[2]; relative humidity range of 0-90%, listed as crystalline anhydrous Form II", "result": "very low"},
      {"measurement": "hygroscopic degree (DVS)", "setting": "[2]; [6]", "result": "about 0.7%"}
    ]},
    {"compound": "C=CC(=O)N1CCC(Oc2cc3c(Nc4ccc(Cl)c(Cl)c4F)ncnc3cc2OC)CC1", "note": "[Example 4, 1-(4-(4-(3,4-dichloro-2-fluorophenylamino)-7-methoxyquinazolin-6-yloxy)piperidin-1-yl)prop-2-en-1-one]", "values": [
      {"measurement": "Purity (HPLC, %) 3 days", "setting": "[3]; [7]", "result": 99.2, "unit": "%"},
      {"measurement": "Purity (HPLC, %) Start", "setting": "[3]; [7]", "result": 99.2, "unit": "%"},
      {"measurement": "Purity (HPLC, %) Week 1", "setting": "[3]; [7]", "result": 99.2, "unit": "%"},
      {"measurement": "Purity (HPLC, %) Week 2", "setting": "[3]; [7]", "result": 99.1, "unit": "%"},
      {"measurement": "Purity (HPLC, %) Week 4", "setting": "[3]; [7]", "result": 99.2, "unit": "%"},
      {"measurement": "Purity (HPLC, %) 3 days", "setting": "[3]; [8]", "result": 99.3, "unit": "%"},
      {"measurement": "Purity (HPLC, %) Start", "setting": "[3]; [8]", "result": 99.2, "unit": "%"},
      {"measurement": "Purity (HPLC, %) Week 1", "setting": "[3]; [8]", "result": 99.2, "unit": "%"},
      {"measurement": "Purity (HPLC, %) Week 2", "setting": "[3]; [8]", "result": 99.1, "unit": "%"},
      {"measurement": "Purity (HPLC, %) Week 4", "setting": "[3]; [8]", "result": 99.2, "unit": "%"},
      {"measurement": "hygroscopic degree (DVS)", "setting": "[2]; [6]", "result": "about 0.4%"},
      {"measurement": "hygroscopic degree (DVS)", "setting": "[2]; relative humidity range of 10-90%, 25° C., listed as crystalline monohydrochloride monohydrate (1HCl.1H2O) form", "result": "very low"},
      {"measurement": "Solubility, pH 1.2", "setting": "[4]; listed as HCl cryst. hydrate", "result": 5, "unit": "μg/mL"},
      {"measurement": "Solubility, pH 2.0", "setting": "[4]; listed as HCl cryst. hydrate", "result": 7, "unit": "μg/mL"},
      {"measurement": "Solubility, pH 4.0", "setting": "[4]; listed as HCl cryst. hydrate", "result": 48, "unit": "μg/mL"},
      {"measurement": "Solubility, Water", "setting": "[4]; listed as HCl cryst. hydrate", "result": "<LOD"}
    ]},
    {"compound": "C=CC(=O)N1CCC(Oc2cc3c(Nc4ccc(Cl)c(Cl)c4F)ncnc3cc2OC)CC1", "note": "[Example 5, 1-(4-(4-(3,4-dichloro-2-fluorophenylamino)-7-methoxyquinazolin-6-yloxy)piperidin-1-yl)prop-2-en-1-one]", "values": [
      {"measurement": "Purity (HPLC, %) 3 days", "setting": "[3]; [9]", "result": 99.4, "unit": "%"},
      {"measurement": "Purity (HPLC, %) Start", "setting": "[3]; [9]", "result": 99.4, "unit": "%"},
      {"measurement": "Purity (HPLC, %) Week 1", "setting": "[3]; [9]", "result": 99.4, "unit": "%"},
      {"measurement": "Purity (HPLC, %) Week 2", "setting": "[3]; [9]", "result": 99.5, "unit": "%"},
      {"measurement": "Purity (HPLC, %) Week 4", "setting": "[3]; [9]", "result": 99.5, "unit": "%"},
      {"measurement": "Purity (HPLC, %) 3 days", "setting": "[3]; [10]", "result": 99.4, "unit": "%"},
      {"measurement": "Purity (HPLC, %) Start", "setting": "[3]; [10]", "result": 99.4, "unit": "%"},
      {"measurement": "Purity (HPLC, %) Week 1", "setting": "[3]; [10]", "result": 99.4, "unit": "%"},
      {"measurement": "Purity (HPLC, %) Week 2", "setting": "[3]; [10]", "result": 99.5, "unit": "%"},
      {"measurement": "Purity (HPLC, %) Week 4", "setting": "[3]; [10]", "result": 99.5, "unit": "%"},
      {"measurement": "moisture absorption on storage", "setting": "[1]; 25° C., 60% relative humidity and 40° C., 75% relative humidity", "result": "did not absorb moisture"},
      {"measurement": "hygroscopic degree (DVS)", "setting": "[2]; [6]", "result": "about 0.35%"},
      {"measurement": "hygroscopic degree (DVS)", "setting": "[2]; relative humidity range of 10-90%, 25° C., listed as crystalline anhydrous monohydrochloride (1HCl) form", "result": "very low"},
      {"measurement": "Solubility, pH 1.2", "setting": "[4]; listed as HCl cryst. anhydrate", "result": 92, "unit": "μg/mL"},
      {"measurement": "Solubility, pH 2.0", "setting": "[4]; listed as HCl cryst. anhydrate", "result": 140, "unit": "μg/mL"},
      {"measurement": "Solubility, pH 4.0", "setting": "[4]; listed as HCl cryst. anhydrate", "result": 74, "unit": "μg/mL"},
      {"measurement": "Solubility, Water", "setting": "[4]; listed as HCl cryst. anhydrate", "result": 20, "unit": "µg/mL"}
    ]},
    {"compound": "C=CC(=O)N1CCC(Oc2cc3c(Nc4ccc(Cl)c(Cl)c4F)ncnc3cc2OC)CC1", "note": "[Example 6, 1-(4-(4-(3,4-dichloro-2-fluorophenylamino)-7-methoxyquinazolin-6-yloxy)piperidin-1-yl)prop-2-en-1-one]", "values": [
      {"measurement": "Solubility, pH 1.2", "setting": "[4]; listed as HCl amorphous", "result": 274, "unit": "μg/mL"},
      {"measurement": "Solubility, pH 2.0", "setting": "[4]; listed as HCl amorphous", "result": 213, "unit": "μg/mL"},
      {"measurement": "Solubility, pH 4.0", "setting": "[4]; listed as HCl amorphous", "result": 34, "unit": "μg/mL"},
      {"measurement": "Solubility, Water", "setting": "[4]; listed as HCl amorphous", "result": 53, "unit": "µg/mL"}
    ]},
    {"compound": "C=CC(=O)N1CCC(Oc2cc3c(Nc4ccc(Cl)c(Cl)c4F)ncnc3cc2OC)CC1", "note": "[Reference Example, 1-(4-(4-(3,4-dichloro-2-fluorophenylamino)-7-methoxyquinazolin-6-yloxy)piperidin-1-yl)prop-2-en-1-one]", "values": [
      {"measurement": "hygroscopic degree (DVS)", "setting": "[2]; [6]", "result": "1-3%"},
      {"measurement": "solubility", "setting": "[5]", "result": "< 1", "unit": "µg/mL"}
    ]}
  ]
}
